Measured values taken from ChEMBL document CHEMBL4138123, “Design, synthesis and biological evaluation of novel pyrazolochalcones as potential modulators of PI3K/Akt/mTOR pathway and inducers of apoptosis in breast cancer cells” (Eur J Med Chem, 2017).

Key:
Type in all cases: functional
RXF 393 = test: Cytotoxicity against human RXF393 cells assessed as cell growth at 1 uM after 48 hrs by sulforhodamine B assay relative to control; conditions: RXF 393, 48 h, read-out: Activity
UO-31 = test: Cytotoxicity against human UO31 cells assessed as growth inhibition after 48 hrs by sulforhodamine B assay; conditions: UO-31, 48 h
SK-MEL-28 = test: Cytotoxicity against human SK-MEL-28 cells assessed as cell growth at 0.1 uM after 48 hrs by sulforhodamine B assay relative to control; conditions: SK-MEL-28, 48 h, read-out: Activity
NCI-H226 = test: Cytotoxicity against human NCI-H226 cells assessed as cell growth at 10 uM after 48 hrs by sulforhodamine B assay relative to control; conditions: NCI-H226, 48 h, read-out: Activity
SK-MEL-5 [1] = test: Cytotoxicity against human SK-MEL-5 cells assessed as growth inhibition after 48 hrs by sulforhodamine B assay; conditions: SK-MEL-5, 48 h
MDA-MB-435 = test: Cytotoxicity against human MDA-MB-435 cells assessed as growth inhibition after 48 hrs by sulforhodamine B assay; conditions: MDA-MB-435, 48 h
NCI-H322M [2] = test: Cytotoxicity against human NCI-H322M cells assessed as growth inhibition after 48 hrs by sulforhodamine B assay; conditions: for CC50: read-out: LC50 (the source's name)
DU-145 [3] = test: Cytotoxicity against human DU145 cells assessed as cell growth at 1 uM after 48 hrs by sulforhodamine B assay relative to control; conditions: DU-145, 48 h, read-out: Activity
SK-MEL-5 [4] = test: Cytotoxicity against human SK-MEL-5 cells assessed as cell growth at 0.1 uM after 48 hrs by sulforhodamine B assay relative to control; conditions: SK-MEL-5, 48 h, read-out: Activity
SF-268 = test: Cytotoxicity against human SF268 cells assessed as cell growth at 0.1 uM after 48 hrs by sulforhodamine B assay relative to control; conditions: SF-268, 48 h, read-out: Activity
UACC-62 = test: Cytotoxicity against human UACC62 cells assessed as cell growth at 100 uM after 48 hrs by sulforhodamine B assay relative to control; conditions: UACC-62, 48 h, read-out: Activity
786-0 = test: Cytotoxicity against human 786-0 cells assessed as cell growth at 0.01 uM after 48 hrs by sulforhodamine B assay relative to control; conditions: 786-0, 48 h, read-out: Activity
DU-145 [5] = test: Cytotoxicity against human DU145 cells assessed as cell growth at 10 uM after 48 hrs by sulforhodamine B assay relative to control; conditions: DU-145, 48 h, read-out: Activity
MDA-MB-468 = test: Cytotoxicity against human MDA-MB-468 cells assessed as growth inhibition after 48 hrs by sulforhodamine B assay; conditions: MDA-MB-468, 48 h
MCF7 = test: Cytotoxicity against human MCF7 cells assessed as cell growth at 0.01 uM after 48 hrs by sulforhodamine B assay relative to control; conditions: MCF7, 48 h, read-out: Activity
NCI-H23 = test: Cytotoxicity against human NCI-H23 cells assessed as cell growth at 10 uM after 48 hrs by sulforhodamine B assay relative to control; conditions: NCI-H23, 48 h, read-out: Activity
TK-10 [6] = test: Cytotoxicity against human TK10 cells assessed as cell growth at 0.1 uM after 48 hrs by sulforhodamine B assay relative to control; conditions: TK-10, 48 h, read-out: Activity
DU-145 [7] = test: Cytotoxicity against human DU145 cells assessed as growth inhibition after 48 hrs by sulforhodamine B assay; conditions: DU-145, 48 h; for CC50: read-out: LC50 (the source's name)
HCT-116 = test: Cytotoxicity against human HCT116 cells assessed as growth inhibition after 48 hrs by sulforhodamine B assay; conditions: HCT-116, 48 h
TK-10 [8] = test: Cytotoxicity against human TK10 cells assessed as cell growth at 10 uM after 48 hrs by sulforhodamine B assay relative to control; conditions: TK-10, 48 h, read-out: Activity
KM12 [9] = test: Cytotoxicity against human KM12 cells assessed as cell growth at 1 uM after 48 hrs by sulforhodamine B assay relative to control; conditions: KM12, 48 h, read-out: Activity
Malme-3M [10] = test: Cytotoxicity against human MALME-3M cells assessed as cell growth at 100 uM after 48 hrs by sulforhodamine B assay relative to control; conditions: read-out: Activity
RPMI-8226 = test: Cytotoxicity against human RPMI8226 cells assessed as cell growth at 0.01 uM after 48 hrs by sulforhodamine B assay relative to control; conditions: RPMI-8226, 48 h, read-out: Activity
NCI-H460 = test: Cytotoxicity against human NCI-H460 cells assessed as cell growth at 0.1 uM after 48 hrs by sulforhodamine B assay relative to control; conditions: NCI-H460, 48 h, read-out: Activity
OVCAR-3 = test: Cytotoxicity against human OVCAR3 cells assessed as cell growth at 0.01 uM after 48 hrs by sulforhodamine B assay relative to control; conditions: OVCAR-3, 48 h, read-out: Activity
COLO 205 [11] = test: Cytotoxicity against human COLO205 cells assessed as cell growth at 1 uM after 48 hrs by sulforhodamine B assay relative to control; conditions: COLO 205, 48 h, read-out: Activity
CCRF-CEM = test: Cytotoxicity against human CCRF-CEM cells assessed as cell growth at 1 uM after 48 hrs by sulforhodamine B assay relative to control; conditions: read-out: Activity
NCI-H322M [12] = test: Cytotoxicity against human NCI-H322M cells assessed as cell growth at 1 uM after 48 hrs by sulforhodamine B assay relative to control; conditions: read-out: Activity
KM12 [13] = test: Cytotoxicity against human KM12 cells assessed as cell growth at 0.01 uM after 48 hrs by sulforhodamine B assay relative to control; conditions: KM12, 48 h, read-out: Activity
COLO 205 [14] = test: Cytotoxicity against human COLO205 cells assessed as cell growth at 100 uM after 48 hrs by sulforhodamine B assay relative to control; conditions: COLO 205, 48 h, read-out: Activity
MDA-MB-231 = test: Cytotoxicity against human MDA-MB-231 cells assessed as cell growth at 1 uM after 48 hrs by sulforhodamine B assay relative to control; conditions: MDA-MB-231, 48 h, read-out: Activity
NCI-H522 = test: Cytotoxicity against human NCI-H522 cells assessed as growth inhibition after 48 hrs by sulforhodamine B assay; conditions: NCI-H522, 48 h
HOP-62 = test: Cytotoxicity against human HOP62 cells assessed as cell growth at 0.01 uM after 48 hrs by sulforhodamine B assay relative to control; conditions: HOP-62, 48 h, read-out: Activity
T47D = test: Cytotoxicity against human T47D cells assessed as cell growth at 100 uM after 48 hrs by sulforhodamine B assay relative to control; conditions: read-out: Activity
Malme-3M [15] = test: Cytotoxicity against human MALME-3M cells assessed as growth inhibition after 48 hrs by sulforhodamine B assay

COc1ccc(C(=O)/C=C/c2cc(-c3ccc4c(c3)OCO4)n[nH]2)cc1OC
growth at 1 µM (RXF 393): 105%
GI50 (UO-31): 2.32 µM
LC50 (UO-31): 34.5 µM
TGI (UO-31): 10.1 µM
growth at 0.1 µM (SK-MEL-28): 104%
growth at 10 µM (NCI-H226): 1%
LC50 (concentration killing 50% of cells) (SK-MEL-5 [1]): 46.4 µM
TGI (SK-MEL-5 [1]): 19.9 µM
LC50 (MDA-MB-435): 99 µM
TGI (MDA-MB-435): 10 µM
TGI (NCI-H322M [2]): 7.3 µM
CC50 (NCI-H322M [2]): 29.6 µM
growth at 1 µM (DU-145 [3]): 88%
growth at 0.1 µM (SK-MEL-5 [4]): 97%
growth at 0.1 µM (SF-268): 94%
growth at 100 µM (UACC-62): -94%
growth at 0.01 µM (786-0): 96%
growth at 10 µM (DU-145 [5]): -51%
GI50 (MDA-MB-468): 1.86 µM
LC50 (MDA-MB-468): 13.5 µM
TGI (MDA-MB-468): 4.52 µM
growth at 0.01 µM (MCF7): 92%
growth at 10 µM (NCI-H23): 28%
growth at 0.1 µM (TK-10 [6]): 92%
GI50 (DU-145 [7]): 1.86 µM
TGI (DU-145 [7]): 4.27 µM
CC50 (DU-145 [7]): 9.8 µM
LC50 (HCT-116): 56.2 µM
TGI (HCT-116): 7.99 µM
growth at 10 µM (TK-10 [8]): -5%
growth at 1 µM (KM12 [9]): 94%
growth at 100 µM (Malme-3M [10]): -74%
growth at 0.01 µM (RPMI-8226): 99%
growth at 0.1 µM (NCI-H460): 102%
growth at 0.01 µM (OVCAR-3): 103%
growth at 1 µM (COLO 205 [11]): 101%
growth at 1 µM (CCRF-CEM): 85%
growth at 1 µM (NCI-H322M [12]): 92%
growth at 0.01 µM (KM12 [13]): 99%
growth at 100 µM (COLO 205 [14]): -83%
growth at 1 µM (MDA-MB-231): 90%
LC50 (NCI-H522): 12.7 µM
TGI (NCI-H522): 4.44 µM
growth at 0.01 µM (HOP-62): 95%
growth at 100 µM (T47D): -31%
LC50 (Malme-3M [15]): 61.8 µM
TGI (Malme-3M [15]): 22.8 µM

COc1ccc(-c2cc(/C=C/C(=O)c3ccc(N)cc3)[nH]n2)cc1
growth at 1 µM (RXF 393): 78%
GI50 (UO-31): 1.18 µM
LC50 (UO-31): 5.54 µM
TGI (UO-31): 2.56 µM
growth at 0.1 µM (SK-MEL-28): 91%
growth at 10 µM (NCI-H226): -29%
GI50 (SK-MEL-5 [1]): 2.71 µM
LC50 (concentration killing 50% of cells) (SK-MEL-5 [1]): 30.4 µM
TGI (SK-MEL-5 [1]): 9.25 µM
GI50 (MDA-MB-435): 2.24 µM
LC50 (MDA-MB-435): 38.2 µM
TGI (MDA-MB-435): 7 µM
GI50 (NCI-H322M [2]): 1.84 µM
TGI (NCI-H322M [2]): 9.27 µM
CC50 (NCI-H322M [2]): 31.6 µM
growth at 1 µM (DU-145 [3]): 64%
growth at 0.1 µM (SK-MEL-5 [4]): 90%
growth at 0.1 µM (SF-268): 93%
growth at 100 µM (UACC-62): -93%
growth at 0.01 µM (786-0): 96%
growth at 10 µM (DU-145 [5]): -55%
GI50 (MDA-MB-468): 0.43 µM
LC50 (MDA-MB-468): 7.45 µM
TGI (MDA-MB-468): 2.09 µM
growth at 0.01 µM (MCF7): 84%
growth at 10 µM (NCI-H23): 8%
growth at 0.1 µM (TK-10 [6]): 95%
GI50 (DU-145 [7]): 1.32 µM
TGI (DU-145 [7]): 3.46 µM
CC50 (DU-145 [7]): 9.11 µM
GI50 (HCT-116): 1.38 µM
TGI (HCT-116): 3.61 µM
growth at 10 µM (TK-10 [8]): 12%
growth at 1 µM (KM12 [9]): 77%
growth at 100 µM (Malme-3M [10]): -82%
growth at 0.01 µM (RPMI-8226): 99%
growth at 0.1 µM (NCI-H460): 102%
growth at 0.01 µM (OVCAR-3): 104%
growth at 1 µM (COLO 205 [11]): 100%
growth at 1 µM (CCRF-CEM): 61%
growth at 1 µM (NCI-H322M [12]): 69%
growth at 0.01 µM (KM12 [13]): 96%
growth at 100 µM (COLO 205 [14]): -74%
growth at 1 µM (MDA-MB-231): 78%
GI50 (NCI-H522): 1.21 µM
LC50 (NCI-H522): 7.03 µM
TGI (NCI-H522): 2.91 µM
growth at 0.01 µM (HOP-62): 107%
growth at 100 µM (T47D): -54%
GI50 (Malme-3M [15]): 2.18 µM
LC50 (Malme-3M [15]): 28.8 µM
TGI (Malme-3M [15]): 6.22 µM
